Results published in US6680292B1 (The Salk Institute for Biological Studies, priority 1998, dated 2004).
“Also recorded” adds a separate entry of the source.

B1: NGF: nerve growth factor; mouse 2.5S NGF at 500 pg/ml (protein, UniProt P01139 122-241, looked up)
Beta-nerve growth factor: SSTHPVFHMGEFSVCDSVSVWVGDKTTATDIKGKEVTVLAEVNINNSVFRQYFFETKCRASNPVESGCRGIDSKHWNSYCTTTHTFVKALTTDEKQAAWRFIRIDTACVCVLSRKATRRG
modifications: Beta-nerve growth factor
notes: nerve growth factor; mouse 2.5S NGF at 500 pg/ml

Columns and labels:
PC12 cells [1] = assay: Growth cone turning in PC12 cells; format: cell-based, rat; conditions: for growth cone turning: PC12 cells exposed to a focal site of compound, FIGS. 8A-8E
Description: The ability of compounds to stimulate neurite elongation as determined by growth cone turning was evaluated in vitro. PC 12 cells were cultured as described above (see Example 1). Cells growing in culture were exposed to a focal site of Ribavirin and control compounds and the number of growth cones with a turning angle was measured and the turned angle of each growth cone was measured.

PC12 cells [2] = assay: Neurite outgrowth / elongation in PC12 cells; format: cell-based, rat
Description: Neurite outgrowth was determined by measuring neurites from the cell body to the longest point and by counting the number of neurites per cell according to the method of Gysbers et al. (Gysbers et al., NeuroReport 3:997-1000 (1992) and Gysbers et al., Int. J. Dev. Neurosci. 14:19-34 (1996)). Cells are stained with antibodies for Rip, Glial Fibrillary Acidic Protein (GFAP), Microtubule Associated Protein 2ab (MAP2ab), and Calbindin (a Ca-buffering protein).
Briefly, cells were plated on poly-DL-ornithine-coated wells in 24-well plates at a concentration of 2.5×10^4 cells per well in RPMI-1640 medium containing 1.5% FCS, and 1.5% HS. Test compounds and NGF were added immediately after plating. […] The number of cells bearing neurites greater than one cell body diameter after each treatment with test compound was divided by the total number of cells counted.
The ratio of the number of cells bearing neurites in each treatment were divided by the total number of cells counted per treatment to determine the proportion of neurite bearing cells for each sample. The mean values (±S.E.M.) were then calculated for each treatment. […] The effect of the test compounds plus NGF is expressed as a percentage of the values obtained using 500 pg/ml NGF (which is given an arbitrary * value of 100% since neurite outgrowth proportions varied between experiments, usually from 20 to 35% for NGF-alone treatments). […]

PC12 cells [3] = assay: Survival and proliferation of PC12 cells (cell counts); format: cell-based, rat
Description: PC12 cells were maintained in RPMI-1640 medium supplemented with 5% fetal calf serum (FCS), 5% heat-inactivated horse serum (HS), 100 units/ml penicillin G sodium, 100 μg/ml streptomycin sulfate and 0.245 μg/ml amphotericin B. NGF-treated cells were grown in the presence of 500 pg/ml mouse 2.5S NGF. The 1-(β-D-ribofuranosyl)-1H-1,2,4-triazole-3-carboxamide was supplied by ICN Pharmaceuticals. HCN cells were maintained in serum-free N2 basal media with 500 pg/ml of FGF-2. Cells were plated on plastic tissue culture plates coated with polyornithine.
PC12 cells were grown as described above and plated at a density of 10,000 cells/well in RPMI with 500 pg/ml NGF. […] Cells were counted and neurite elongation evaluated on days 0, 1 and 3. The media was not changed for the duration of the experiment.

astrocytes = assay: Effect on non-neuronal cells: astrocytes; format: cell-based; conditions: same experimental condition as PC12 and HCN cells
HCN cells [4] = system: HCN cells
HCN cells [5] = assay: FGF-2 induced neurite elongation in HCN cells; format: cell-based; conditions: HCN cells with FGF-2; 0.1, 0.5, 1, 100, 400 nM Ribavirin
Fibroblasts = assay: Effect on non-neuronal cells: fibroblasts; format: cell-based; conditions: same experimental condition as PC12 and HCN cells

| Molecule | growth cone turning (PC12 cells [1]) | neurite elongation and networking (PC12 cells [2]; PC12 cells with NGF, 100 pM, 500 pM, 1 nM, 100 nM and 400 nM) | effect on cell survival or proliferation (PC12 cells [3]; PC12 cells, absence of NGF, various concentrations, FIG. 1) | effects of NGF on the survival and proliferation of PC12 cells (PC12 cells [3]; with 500 pg/ml NGF, assessed at day 1 and day 3, FIG. 2) | effect on astrocytes (astrocytes) | concentrations at which effects were more pronounced (HCN cells [4]; HCN cells with FGF-2) | effect on FGF-2 actions (proliferation, survival) (HCN cells [4]; HCN cells with FGF-2, up to 7 days, FIGS. 4 and 5) | effect on cell survival or proliferation (HCN cells [4]; HCN cells, Ribavirin alone (no FGF-2), 12,500 or 25,000 cells/well, FIG. 3) | effective concentrations for growth cone turning (PC12 cells [1]; PC12 cells) | elongation and networking of the neurites (HCN cells [5]) | effect on fibroblasts (Fibroblasts) | neurite outgrowth proportions (proportion of neurite bearing cells) (PC12 cells [2]; NGF-alone treatments, 500 pg/ml NGF, varied between experiments) |
| --- | --- | --- | --- | --- | --- | --- | --- | --- | --- | --- | --- | --- |
| Nc1nc2c(nc(Br)n2[C@@H]2O[C@@H]3COP(=O)(O)O[C@H]3[C@H]2O)c(=O)[nH]1 [8-bromo-cGMP] | turning away from the site (i.e., repulsion | – | – | – | – | – | – | – | – | – | – | – |
| NC(=O)c1ncn([C@@H]2O[C@H](CO)[C@@H](O)[C@H]2O)n1 [Ribavirin, 1-(β-D-ribofuranosyl)-1H-1,2,4-triazole-3-carboxamide] | stimulated growth cone turning; also recorded: increased turning towards the Ribavirin site (attraction) | enhanced at all concentrations tested | No statistically significant effect | augmented/enhanced | without effect | less than 1 nM | augmented/enhanced FGF-2 actions | no effect | nanomolar range | increased elongation and networking | without effect | – |
| B1 | – | – | – | – | – | – | – | – | – | – | – | 20 to 35% |
